From patent US9724348B2, “Crystalline forms” (VM Therapeutics LLC, priority 2013, dated 2017)

Columns and labels:
CCI rats = assay: Chronic Constriction Injury (CCI) model of neuropathic pain in rat, von Frey paw withdrawal threshold; assay type: in vivo
Text: Chronic Constriction Injury (CCI) Model of Neuropathic Pain in Rat. The CCI model is one of the most commonly used mono-neuropathic pain model firstly described in details by Bennett and Xie (Bennett G J, Xie Y K. Pain. 1988; 33(1):87-107). It mimics important clinical chronic pain symptoms such as mechanical allodynia and thermal hyperalgesia. Chronic constriction injury of the sciatic nerve was produced by tying four loose ligatures around the left sciatic nerve according to the method of Bennett and Xie. […] Calibrated von Frey filaments were used to determine the lowest mechanical (tactile) threshold required to evoke a brisk paw withdrawal reflex in the rat hindpaws. Rats were allowed to acclimatize in wire mesh cages for 15-20 min prior to von Frey testing. Assessment of paw withdrawal thresholds (PWTs) using von Frey filaments was undertaken prior to CCI-surgery (pre-surgery baseline on day 0). Before the drug dosing on day 14, the pre-dose baseline was recorded for each rat. […] Drug-naïve CCI-rats (n=4-6 per group) were used. The oral (PO) gavage vehicle was either 10% (w/v) Povidone K25 in water for PO dosing, or 18% (w/v) CrosPovidone in water for PO dosing, or 0.5% CMC-Na/0.1% Tween 80 in distilled water for PO dosing. The positive control gabapentin was dissolved in the vehicle and orally given at 100 mg/kg (by oral gavage). Test article was dissolved or suspended in the vehicle and orally given at 25, 50, 100 and 150 mg/kg. Each CCI-rat was administered a single oral dose of test article, gabapentin or vehicle control, 2 hours before assessment of PWT.

SNL rats = assay: Spinal Nerve Ligation (SNL) mono-neuropathic pain model in rat, von Frey paw withdrawal threshold; assay type: in vivo; conditions: oral gavage, dose-dependent
Experimental: Spinal Nerve Ligation (SNL) Mono-Neuropathic Pain Model in Rat. The surgical procedure will be performed according to the method firstly described by Kim and Chung (Kim S H, Chung J M. Pain. 1992; 50(3):355-63.). This procedure will result in tactile allodynia in the left hindpaw. […] The dose-response anti-allodynia effects of test compound: on day 14 after surgery, rats were treated with test article at one of four doses, vehicle or positive control by oral gavage, and PWT was determined by calibrated von Frey filaments at time points of 0 (right before the drug dosing, Pre-Dose Baseline), 0.5, 1, 2, 4 and 6 hr. The anti-allodynia effects of repeated administration of test article: Administration of test article was started on day 7 after surgery, once a day for 7 days. PWT was determined by calibrated von Frey filaments, 2 hour after test article dosing each day. After 7 days dosing, the measurement were continued, every other day without compound dosing for another 7 days. PWT was determined at the time points as given above.

[1] = tested on: rat CFA-induced inflammatory pain; assay: Rat CFA-induced inflammatory pain model; assay type: in vivo; conditions: oral dose, FIG. 15
Experimental: Rat CFA-Induced Inflammatory Pain Model. Hyperalgesia was induced by subcutaneously injecting […] of CFA (Sigma-Aldrich, St. Louis, Mo., USA) into the plantar surface of the left hind paw of the rats using a 30-gauge hypodermic needle under sevoflurane anesthesia. The classical signs of inflammation, including edema and redness, for up the last day of tests were recorded. To assess the effect of test article on CFA-induced inflammatory pain, the rats were anesthetized with sevoflurane 3 hours after CFA injection and then orally dosed with test article (n=6) or vehicle (n=6) or positive control. Paw withdrawal latencies (thermal hyperalgesia) are measured before and at 2 and 4 hours after CFA injection. Mechanical thresholds were also measured in the same way with either the compound of current invention (n=6) or vehicle (n=6) or positive control, Naproxen (n=6) at similar different time points (for example, 1 and 3 hour). The noxious heat and mechanical thresholds were separately measured in each group of rats. The threshold was measured 3-5 times in each rat and then averaged. Stimulus interval was 5 min.

anxiety disorders = conditions: human clinical studies; cited from earlier work
[2] = Competitive slurries of polymorphic forms; assay type: physicochemical; conditions: competitive slurries in IPA, IPA and water, and acetone at ambient temperature and about 40° C.; all gave complete conversion to Form 2
Experimental: The DSC of Form 2 has a single endotherm at about 160° C. Competitive slurries in IPA, IPA and water, and acetone at ambient temperature and about 40° C., all results in complete conversion to Form 2.

[3] = Solid form conversion on drying or during DSC; assay type: physicochemical; conditions: drying at 80° C. or during a DSC experiment
Experimental: Also, Form 5 can be possibly isostructural with Form 2 or Form 2′, or the differences between these forms may relate to the presence or absence of a particular amount of surface water.
Form 5 may convert to a different form (Form 2′) which has a similar X-ray pattern to Form 2 on drying (80° C.), as shown in Table below and FIG. 11 (XRPD), FIG. 12 (^1H-NMR), and FIG. 13 (DSC).

Cc1nc2ccccn2c(=O)c1CCN1CCC(C(=O)c2ccc(F)cc2)CC1 [Compound 10, 3-(2-{4-[(4-fluorophenyl)carbonyl]piperidin-1-yl}ethyl)-2-methyl-4H-pyrido[1,2-a]pyrimidin-4-one]
potency relative to positive control gabapentin (CCI rats; CCI rats, oral, gabapentin 100 mg/kg): more than 100 time | mechanical allodynia (paw withdrawal threshold) (CCI rats; CCI rats, single oral dose 25, 50, 100 and 150 mg/kg, PWT 2 hours after dosing, dose-dependent, FIG. 14): significantly reduced mechanical allodynia | drowsiness, motor incoordination or other abnormality observed (CCI rats; rat, in vivo, po): no such effect or other abnormality was observed | mechanical allodynia (paw withdrawal threshold) (SNL rats): significantly reduced mechanical allodynia | analgesic effect compared with positive control Naproxen [1]: more efficacious than positive control Naproxen | anti-anxiety effects (anxiety disorders): did not show any dose-related anti-anxiety effects | safety in human (anxiety disorders): safe in human

Cc1nc2ccccn2c(=O)c1CCN1CCC(C(=O)c2ccc(F)cc2)CC1 [Form 2, 3-(2-{4-[(4-fluorophenyl)carbonyl]piperidin-1-yl}ethyl)-2-methyl-4H-pyrido[1,2-a]pyrimidin-4-one]
thermodynamic stability of crystalline form [2]: most thermodynamically stable form

Cc1nc2ccccn2c(=O)c1CCN1CCC(C(=O)c2ccc(F)cc2)CC1 [Form 5, 3-(2-{4-[(4-fluorophenyl)carbonyl]piperidin-1-yl}ethyl)-2-methyl-4H-pyrido[1,2-a]pyrimidin-4-one]
solid form stability on drying [3]: can convert to a Form 2′ on drying

NCC1(CC(=O)O)CCCCC1 [gabapentin, reference compound]
drowsiness, motor incoordination or other abnormality observed (CCI rats; CCI rats after single oral dose): drowsiness or motor incoordination
